# From US20220395608A1, “WATER SOLUBLE BIOADHESIVES” (THE GOVERNING COUNCIL OF THE UNIVERSITY OF TORONTO, priority 2019, published 2022)
# Columns and labels:
# [1] = system: A10 smooth muscle cell line; experiment: WST-1 cell viability assay, direct contact, ISO 10993-5; type: cell-based; conditions: A10 cells, relative to DMEM negative control, mean ± SD, n = 4
# Description: (§1) Cytotoxicity Assays: In vitro cytotoxicity of adhesive formulations was assessed by direct contact with cells, according to ISO 10993-5 [35], which describes test methods to evaluate in vitro cytotoxicity of medical devices and, therefore, determine the in vitro biological response of mammalian cells using appropriate parameters. DNA mass quantification and Water-soluble tetrazolium (WST-1) assays were used to evaluate the toxicity of the formulations to a cell line. Negative and positive controls consisted of growth media with untreated cells and 5% Dimethyl sulfoxide (DMSO), respectively.
# (§2) Cell Culture and Sample Preparation: A10 smooth muscle cell line (ATCC, CRL-1476™) were cultured in Dulbecco's modified Eagle's medium (DMEM), supplemented with 100 U mL^−1 penicillin/100 μg of streptomycin and 10% fetal bovine serum in a humidified atmosphere at 37° C. with 5% C02. The medium was changed every other day, allowing the cells to grow and reach confluency. When the cells reached 80-90% confluence, they were passaged following treatment with 0.25% trypsin-EDTA solution. This procedure was repeated until the cells entered their standard cellular cycle. Samples of adhesives were pre-conditioned in an incubator with DMEM for 24 h. Then, cells were seeded onto the samples, to which 200 μL of A10 suspension (approximately 25,000 cells/mL) was added. The seeded specimens were confined in the wells of a 96-well plate for 24 h, 72 h and 7 days.
# WST-1 assay: For the WST assay, after removing media and rinsing with 1× with PBS, 200 μL of DMEM was added to each well. […] The absorbance was read using a multi-mode reader (BioTek Cytation 3, Biotek, Winooski, Vt., USA) at 450 nm, with a reference wavelength of 650 nm. […]
# (§3) Statistical analysis: Data was analyzed using the software PASW Statistics 21.0 (SPSS Inc, Chicago, Ill., USA). Two-Way analysis of variance (ANOVA) and Tukey's multiple comparison post-hoc tests will be used to determine a statistical significance between the groups for the DNA mass quantification and WST-1 assays. […]
# [2] = system: A10 smooth muscle cell line; experiment: DNA mass quantification (Hoechst 33258) cytotoxicity assay, direct contact, ISO 10993-5; type: cell-based; conditions: A10 cells, relative to DMEM negative control, mean ± SD, n = 4
# Description: as §1
# as §2, with “Then, cells were seeded onto the samples, to which 200 μL of A10 suspension (approximately 25,000 cells/mL) was added. The seeded specimens were confined in the wells of a 96-well plate for 24 h, 72 h and 7 days.” left out
# DNA mass quantification: At each time-point, cells were lysed with ice-cold lysis buffer (0.05% Triton X-100, 50 mM EDTA in PBS) for 1 h and tested for DNA assay as previously described. […] Then, 10 μL of cell lysate was added to the dye and read against a calf thymus DNA standard in a fluorescence microplate reader (BioTek Cytation 3, Biotek, Winooski, Vt., USA), with the excitation wavelength set at 360 nm and the emission wavelength observed at 460 nm.
# as §3
compound,measurement,setting,value
"C[S+](C)[O-] [5% DMSO, Dimethyl sulfoxide]",Relative Cell viability (%),"[1]; WST-1, 24 h",18.4 ± 0.9%
same,Relative Cell viability (%),"[1]; WST-1, 72 h",4.4 ± 1.1%
same,Relative Cell viability (%),"[1]; WST-1, 7 d",1.0 ± 0.5%
same,Relative DNA mass (%),[2]; 24 h,15.3 ± 5.3%
same,Relative DNA mass (%),[2]; 72 h,1.3 ± 1.9%
same,Relative DNA mass (%),[2]; 7 d,1.4 ± 1.6%
